Measured values published in patent US7485634B2, “Azepinoindole and pyridoindole derivatives as pharmaceutical agents” (Exelixis, Inc., priority 2002, dated 2009).
Read-outs that look alike come from different tables or passages of the source.

What was measured:
farnesoid X receptor = molecular target: T1, farnesoid X receptor (Homo sapiens, UniProt Q96RI1); experiment: one or more of the in vitro assays described herein (TR-FRET assay, Example 75; co-transfection assay, Example 76); conditions: for Emax: read-out: efficacy; for inhibition: 100% = baseline (DMSO only);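 as to all read-outs here: TR-FRET assay or luciferase reporter in CV-1 monkey kidney cells co-transfected with human FXR and RXRα, dose-response over 8 half-log concentrations, CDCA added in antagonist mode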
T1 construct: fused on or other part: GST fused in frame to the N-terminus of the LBD (TR-FRET assay only); Nothing is fused on in the co-transfection assay
T1 sequence (Q96RI1 244-471 isoform Q96RI1-2 limits assumed): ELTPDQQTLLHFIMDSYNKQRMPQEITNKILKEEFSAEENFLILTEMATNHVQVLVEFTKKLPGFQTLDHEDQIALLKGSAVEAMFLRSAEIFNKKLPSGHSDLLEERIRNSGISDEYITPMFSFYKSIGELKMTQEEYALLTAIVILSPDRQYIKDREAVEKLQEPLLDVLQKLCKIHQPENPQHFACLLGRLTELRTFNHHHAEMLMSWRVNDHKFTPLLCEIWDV
Experimental: (Wallac/PE Life Sciences, Cat# AD0059A) in FRET assay buffer (20 mM KH2PO4/K2HPO4 (pH 7.3), 150 mM NaCl, 2 mM CHAPS, 2 mM EDTA, 1 mM DTT) in the presence of the test compound(s) for 2-4 hours at room temperature in a 384 well assay plate. Data was collected using an LJL Analyst using the standard operating instructions and conditions with readings at emission wavelengths of 615 nm and 665 nm after a delay of 65 ps and an excitation wavelength of 330 nm.
The basic co-transfection protocol for measuring the farnesoid X receptor activity is as follows. CV-1 African Green Monkey Kidney cells were plated 24 hours before transfection to achieve approximately 70-80 percent confluency. Cells were transfected with the following expression vectors, CMX-farnesoid X receptor (full length human farnesoid X receptor), CMX-RXRα (full length human RXR), Luc12 (ECREx7-Tk-Luciferase) luciferase reporter gene construct. […] A CMX-β-Galactosidase expression vector was used as a transfection control. The transfection reagent used was DOTAP (Boehringer Mannheim). Cells were incubated with the DOTAP/DNA mixture for 5 hours after which the cells were harvested and plated onto either 96 well or 384 well plates containing the appropriate concentration of test compound. The assay was allowed to continue for an additional 18-20 hours, after which the cells were lysed, with lysis buffer (1% triton X 100, 10% glycerol, 5 mM Dithiothreitol, 1 mM EGTA, 25 mM Tricine, pH 7.8) and the luciferase activity measured in the presence of Luciferase assay buffer (0.73 mM ATP, 22.3 mM Tricine, 0.11 mM EGTA, 0.55 mM Luciferin, 0.15 mM Coenzyme A, 0.5 mM HEPES, 10 mM Magnesium sulphate) on a standard luminomter plate reader (PE Biosystems, NorthStar Reader), using recommended operating instructions and conditions.

[1] = molecular target: T2, full length human farnesoid X receptor (Homo sapiens, UniProt Q96RI1); experiment: farnesoid X receptor/ECREx7 co-transfection assay (luciferase reporter, CV-1 cells); type: cell-based; conditions: read-out: agonist activity EC50
T2 construct: CMX-farnesoid X receptor (full length human farnesoid X receptor); expressed in transfected cells; host or cells: CV-1 African Green Monkey Kidney cells
T2 sequence (Q96RI1 1-472 isoform Q96RI1-2): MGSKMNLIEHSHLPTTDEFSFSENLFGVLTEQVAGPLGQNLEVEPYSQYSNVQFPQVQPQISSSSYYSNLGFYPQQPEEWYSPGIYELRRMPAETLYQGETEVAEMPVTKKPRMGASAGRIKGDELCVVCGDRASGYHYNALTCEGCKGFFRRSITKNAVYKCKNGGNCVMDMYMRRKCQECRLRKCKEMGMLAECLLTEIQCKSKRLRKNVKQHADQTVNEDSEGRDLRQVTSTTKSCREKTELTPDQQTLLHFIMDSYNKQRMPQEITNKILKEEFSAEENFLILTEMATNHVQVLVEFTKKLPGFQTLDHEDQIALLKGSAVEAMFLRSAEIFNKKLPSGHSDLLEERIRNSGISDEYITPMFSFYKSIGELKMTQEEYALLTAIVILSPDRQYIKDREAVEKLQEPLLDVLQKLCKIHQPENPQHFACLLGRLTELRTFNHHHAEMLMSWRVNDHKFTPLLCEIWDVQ
T2 sequence (P19793 1-462 partner): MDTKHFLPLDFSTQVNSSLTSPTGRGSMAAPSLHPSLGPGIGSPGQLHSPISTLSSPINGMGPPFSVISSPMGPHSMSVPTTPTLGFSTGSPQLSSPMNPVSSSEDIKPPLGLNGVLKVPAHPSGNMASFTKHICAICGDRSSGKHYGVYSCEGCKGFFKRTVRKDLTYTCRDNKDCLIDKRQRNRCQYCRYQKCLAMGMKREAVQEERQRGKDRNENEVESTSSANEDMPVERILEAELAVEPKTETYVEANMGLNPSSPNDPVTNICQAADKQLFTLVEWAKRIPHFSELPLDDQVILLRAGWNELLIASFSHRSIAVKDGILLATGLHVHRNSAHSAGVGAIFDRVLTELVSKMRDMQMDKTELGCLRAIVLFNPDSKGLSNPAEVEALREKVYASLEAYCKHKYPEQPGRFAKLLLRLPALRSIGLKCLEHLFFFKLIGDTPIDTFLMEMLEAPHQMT
Experimental: The basic co-transfection protocol for measuring the farnesoid X receptor activity is as follows. CV-1 African Green Monkey Kidney cells were plated 24 hours before transfection to achieve approximately 70-80 percent confluency. Cells were transfected with the following expression vectors, CMX-farnesoid X receptor (full length human farnesoid X receptor), CMX-RXRα (full length human RXR), Luc12 (ECREx7-Tk-Luciferase) luciferase reporter gene construct. (See WO 00/76523, Venkateswaran et al., (2000) J. Biol. Chem. 275 14700-14707). A CMX-β-Galactosidase expression vector was used as a transfection control. The transfection reagent used was DOTAP (Boehringer Mannheim). Cells were incubated with the DOTAP/DNA mixture for 5 hours after which the cells were harvested and plated onto either 96 well or 384 well plates containing the appropriate concentration of test compound. The assay was allowed to continue for an additional 18-20 hours, after which the cells were lysed, with lysis buffer (1% triton X 100, 10% glycerol, 5 mM Dithiothreitol, 1 mM EGTA, 25 mM Tricine, pH 7.8) and the luciferase activity measured in the presence of Luciferase assay buffer (0.73 mM ATP, 22.3 mM Tricine, 0.11 mM EGTA, 0.55 mM Luciferin, 0.15 mM Coenzyme A, 0.5 mM HEPES, 10 mM Magnesium sulphate) on a standard luminomter plate reader (PE Biosystems, NorthStar Reader), using recommended operating instructions and conditions.
Both the farnesoid X receptor/ECREx7 co-transfection assay (Example 76) and the TR-FRET assay (Example 75) can be used to establish the EC50/IC50 values for potency and percent activity or inhibition for efficacy. Efficacy defines the activity of a compound relative to a high control (chenodeoxycholic acid, CDCA) or a low control (DMSO/vehicle). The dose response curves are generated from an 8 point curve with concentrations differing by ½ LOG units. Each point represents the average of 4 wells of data from a 384 well plate. The curve for the data is generated by using the equation: Y=Bottom+(Top−Bottom)/(1+10^((LogEC50−X)*HillSlope))
The EC50/IC50 is therefore defined as the concentration at which an agonist or antagonist elicits a response that is half way between the Top (maximum) and Bottom (baseline) values. The EC50/IC50 values represented are the averages of at least 3 independent experiments. The determination of the relative efficacy or % control for an agonist is by comparison to the maximum response achieved by chenodeoxycholic acid that is measured individually in each dose response experiment.
For the antagonist assay, CDCA is added to each well of a 384 well plate to elicit a response. The % inhibition for each antagonist is therefore a measurement of the inhibition of the activity of CDCA.

[2] = one or more of the in vitro assays, read-out: EC50 (agonist / partial agonist)
[3] = relative to maximum response of chenodeoxycholic acid (CDCA)
[4] = inhibition of the activity of CDCA
[5] = inhibition of the activity of CDCA, read-out: IC50 (antagonist / partial agonist)

Compound | EC50 (farnesoid X receptor; [2]) [µM] | Emax (farnesoid X receptor; [3]) [%] | inhibition (farnesoid X receptor; [4]) [%] | IC50 (farnesoid X receptor; [5]) [µM] | also measured
CCOC(=O)C1=CN(C(=O)c2ccc(F)c(F)c2)CC2(CCCC2)c2c1[nH]c1ccccc21 [3-(3,4-difluorobenzoyl)-1,1-tetramethylene-1,2,3,6-tetrahydroazepino[4,5-b]indole-5-carboxylic acid ethyl ester] | < 0.1 | > 100 |  |  | 
CCOC(=O)C1=CN(C(=O)c2cccc(F)c2)CCc2c1[nH]c1ccccc21 [3-(3-fluorobenzoyl)-1,2,3,6-tetrahydroazepino[4,5-b]indole-5-carboxylic acid ethyl ester] |  |  |  |  | EC50 [1]: < 1 µM
CCOC(=O)C1=CN(C(=O)c2ccc(F)cc2)CC(C)(C)c2c1[nH]c1cc(N(C)C(=O)NCc3ccccn3)ccc21 [3-(4-fluorobenzoyl)-1,1-dimethyl-8-(1-methyl-3-pyridin-2-ylmethylureido)-1,2,3,6-tetrahydroazepino[4,5-b]indole-5-carboxylic acid ethyl ester] |  |  | 100 | < 0.1 | 
CCOC(=O)C1=CN(C(=O)c2ccc(F)cc2)CC(C)(C)c2c1[nH]c1cc(OC(=O)NCCc3ccccn3)ccc21 [3-(4-fluorobenzoyl)-1,1-dimethyl-8-(2-pyridin-2-yl-ethylcarbamoyloxy)-1,2,3,6-tetrahydroazepino[4,5-b]indole-5-carboxylic acid ethyl ester] | < 0.2 | 10 to 30 |  | < 0.2 | 
CCOC(=O)C1=CN(C(=O)c2ccc(F)cc2)CC(C)(C)c2c1[nH]c1cc(OC(=O)NCc3cnc(C)cn3)ccc21 [3-(4-fluorobenzoyl)-1,1-dimethyl-8-(5-methylpyrazin-2-ylmethylcarbamoyloxy)-1,2,3,6-tetrahydroazepino[4,5-b]indole-5-carboxylic acid ethyl ester] | < 0.2 | 10 to 30 |  | < 0.2 | 
CCOC(=O)C1=CN(C(=O)c2ccc(F)cc2)CC(C)(C)c2c1[nH]c1cc(OC(=O)NCc3ccccn3)ccc21 [3-(4-fluorobenzoyl)-1,1-dimethyl-8-(pyridin-2-yl-methylcarbamoyloxy)-1,2,3,6-tetrahydroazepino[4,5-b]indole-5-carboxylic acid ethyl ester] |  |  |  |  | EC50 (farnesoid X receptor): < 0.2 µM; IC50 (farnesoid X receptor): < 0.2 µM; Emax (farnesoid X receptor): 10 to 30%
CCOC(=O)C1=CN(C(=O)c2ccc(F)cc2)CC(C)(C)c2c1[nH]c1cc(OC(=O)NCc3cccnc3)ccc21 [3-(4-fluorobenzoyl)-1,1-dimethyl-8-(pyridin-3-ylmethylcarbamoyloxy)-1,2,3,6-tetrahydroazepino[4,5-b]indole-5-carboxylic acid ethyl ester] | < 0.2 | 10 to 30 |  | < 0.2 | 
CCOC(=O)C1=CN(C(=O)c2ccc(F)cc2)CC(C)(C)c2c1[nH]c1cc(OC(=O)NCc3cccs3)ccc21 [3-(4-fluorobenzoyl)-1,1-dimethyl-8-(thiophen-2-ylmethylcarbamoyloxy)-1,2,3,6-tetrahydroazepino[4,5-b]indole-5-carboxylic acid ethyl ester] |  |  | 100 | < 0.1 | 
CCOC(=O)C1=CN(C(=O)c2ccc(F)cc2)CC(C)(C)c2c1[nH]c1cc(OC(=O)NC(C)C)ccc21 [3-(4-fluorobenzoyl)-1,1-dimethyl-8-isopropylcarbamoyloxy-1,2,3,6-tetrahydroazepino[4,5-b]indole-5-carboxylic acid ethyl ester] |  |  | 100 | < 0.1 | 
CC1Cc2c([nH]c3ccccc23)C(C(=O)NC2CCC2)=CN1C(=O)c1ccc(F)cc1 (stereo not drawn) [3-(4-fluorobenzoyl)-2-methyl-1,2,3,6-tetrahydroazepino[4,5-b]indole-5-carboxylic acid cyclobutylamide] | < 0.1 | > 100 |  |  | 
CCOC(=O)C1=CN(C(=O)c2ccc(F)cc2)CC(C)(C)c2c1[nH]c1cc(N(C)C(=O)NC3CC3)ccc21 [8-(3-cyclopropyl-1-methylureido)-3-(4-fluorobenzoyl)-1,1-dimethyl-1,2,3,6-tetrahydroazepino[4,5-b]indole-5-carboxylic acid ethyl ester] |  |  | 100 | < 0.1 | 
CCOC(=O)C1=CN(C(=O)c2ccc(F)cc2)CC(C)(C)c2c1[nH]c1cc(OC(=O)NC3CCCCC3)ccc21 [8-cyclohexylcarbamoyloxy-3-(4-fluorobenzoyl)-1,1-dimethyl-1,2,3,6-tetrahydroazepino[4,5-b]indole-5-carboxylic acid ethyl ester] | < 0.2 | 10 to 30 |  | < 0.2 | 
CCOC(=O)C1=CN(C(=O)c2ccc(F)cc2)CC(C)(C)c2c1[nH]c1cc(OC(=O)NC3CC3)ccc21 [8-cyclopropylcarbamoyloxy-3-(4-fluorobenzoyl)-1,1-dimethyl-1,2,3,6-tetrahydroazepino[4,5-b]indole-5-carboxylic acid ethyl ester] |  |  | 100 | < 0.1 | 
CCOC(=O)C1=CN(C(=O)c2ccc(F)cc2)CC(C)(C)c2c1[nH]c1ccc(N(Cc3ccccc3)C(=O)N(C)C)cc21 [9-(1-benzyl-3,3-dimethyl-ureido)-3-(4-fluoro-benzoyl)-1,1-dimethyl-1,2,3,6-tetrahydro-azepino[4,5-b]indole-5-carboxylic acid ethyl ester] |  |  | 100 | < 0.1 | 
CCOC(=O)C1=CN(C(=O)c2ccc(F)cc2)CC(C)(C)c2c1[nH]c1ccc(F)cc21 [9-Fluoro-3-(4-fluoro-benzoyl)-1,1-dimethyl-1,2,3,6-tetrahydro-azepino[4,5-b]indole-5-carboxylic acid ethyl ester] | < 0.1 | > 100 |  |  | 
CCOC(=O)C1=CN(C(=O)c2ccc(F)c(F)c2)CC(C)c2c1[nH]c1ccccc21 (stereo not drawn) [ethyl 3-(3,4-difluorobenzoyl)-1-methyl-1,2,3,6-tetrahydroazepino[4,5-b]indole-5-carboxylate] | < 0.1 | > 100 |  |  | 
CC(C)OC(=O)C1=CN(C(=O)c2ccc(F)c(F)c2)CC(C)(C)c2c1[nH]c1ccccc21 [isopropyl 3-(3,4-difluorobenzoyl)-1,1-dimethyl-1,2,3,6-tetrahydroazepino[4,5-b]indole-5-carboxylate] |  | > 100 |  |  | 
CC(C)OC(=O)C1=CN(C(=O)c2ccc(F)c(F)c2)CC(C)c2c1[nH]c1ccccc21 (stereo not drawn) [isopropyl 3-(3,4-difluorobenzoyl)-1-methyl-1,2,3,6-tetrahydroazepino[4,5-b]indole-5-carboxylate] | < 0.1 | > 100 |  |  | 
